Test systems include OVCAR-3 ovarian; UO-31 renal; SK-MEL-2 melanoma; M14 melanoma; SK-OV-3 ovarian; MOLT-4 leukemia; DU-145 prostate; SK-MEL-5 melanoma; HOP-62 NSCLC; HL-60(TB) leukemia; PC-3 prostate; COLO 205 colon; HCC-2998 colon; RPMI-8226 leukemia; CAKI-1 renal; CCRF-CEM leukemia; OVCAR-8 ovarian; SN12C renal; SF-268 CNS; A498 renal.
Holding throughout (test): NCI tumour cell line growth inhibition, 48 h

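Each compound was tested at five concentrations against cells in 96-well plates for 48 hours. At the TGI there is no net growth.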

For the compound `COC(=O)/C=C(/C(=O)OC)c1c(C)cc2c(C)cc(C)cc(C)c1-2`, the TGI in the assay with OVCAR-3 ovarian is 38.3 µM; in the assay with UO-31 renal, 98.2 µM; in the assay on SK-MEL-2 melanoma, over 77.1 µM; in the assay with M14 melanoma it was 35.1 µM; in the assay with SK-OV-3 ovarian it was 99.5 µM; in the assay on MOLT-4 leukemia, over 100 µM. Moreover, the TGI was over 91.8 µM in the assay on DU-145 prostate; 23.5 µM in the assay on SK-MEL-5 melanoma; 37.9 µM with HOP-62 NSCLC; over 100 µM in the assay on HL-60(TB) leukemia; 98.6 µM in the assay on PC-3 prostate; 22.4 µM in the assay with COLO 205 colon. The TGI with HCC-2998 colon was over 100 µM; with RPMI-8226 leukemia, over 100 µM; in the assay with CAKI-1 renal, over 100 µM; in the assay on CCRF-CEM leukemia, over 100 µM; in the assay on OVCAR-8 ovarian, over 86.6 µM; in the assay on SN12C renal, 40.2 µM. For the same compound, the TGI in the assay with SF-268 CNS was over 65.7 µM; in the assay with A498 renal it was 70.3 µM.

With `O=[N+]([O-])c1ccc(NC(=S)Nc2ccccn2)cc1`, the TGI in the assay with OVCAR-3 ovarian is 99.4 µM; in the assay with UO-31 renal, over 100 µM; in the assay on SK-MEL-2 melanoma, over 100 µM; with M14 melanoma, over 100 µM; in the assay on SK-OV-3 ovarian, over 100 µM; with MOLT-4 leukemia it was over 100 µM. For the same compound, the TGI with DU-145 prostate was 35.5 µM; in the assay on SK-MEL-5 melanoma it was over 100 µM; in the assay with HOP-62 NSCLC, 44.8 µM; with HL-60(TB) leukemia, over 73.7 µM; in the assay with PC-3 prostate, over 100 µM; in the assay with COLO 205 colon it was over 94.5 µM. Also, the TGI in the assay on HCC-2998 colon was over 100 µM; with RPMI-8226 leukemia, over 100 µM; in the assay on CAKI-1 renal, 18.9 µM; in the assay on CCRF-CEM leukemia, over 100 µM; in the assay with OVCAR-8 ovarian it was over 100 µM; with SN12C renal, over 100 µM. Also, the TGI was over 91.7 µM in the assay with SF-268 CNS and 45.6 µM with A498 renal.

`C/C1=C\CC/C(C)=C/C=C(/C(C)C)CC/C(C(=O)O)=C/CC1`: the TGI with OVCAR-3 ovarian is 59.5 µM; with UO-31 renal it was over 100 µM; with SK-MEL-2 melanoma it was 62.2 µM; in the assay with M14 melanoma, over 100 µM; with SK-OV-3 ovarian it was 98.2 µM; with MOLT-4 leukemia it was over 100 µM. Also, the TGI in the assay on DU-145 prostate is over 100 µM; with SK-MEL-5 melanoma it was over 100 µM; with HOP-62 NSCLC, over 100 µM; in the assay with HL-60(TB) leukemia, over 100 µM; in the assay with PC-3 prostate, over 100 µM; in the assay with COLO 205 colon, 43.2 µM. The TGI was over 100 µM with HCC-2998 colon; 62 µM in the assay on RPMI-8226 leukemia; over 100 µM in the assay on CAKI-1 renal; over 100 µM in the assay on CCRF-CEM leukemia; over 100 µM in the assay with OVCAR-8 ovarian; over 100 µM in the assay with SN12C renal. Also, the results for the TGI with SF-268 CNS and with A498 renal were over 100 µM and 75.1 µM, respectively.

On to `CC(C)(C)N(Cc1ccoc1)C(=O)/C=C\S(=O)c1ccccc1` (stereo not given), for which the TGI in the assay on OVCAR-3 ovarian is 26.2 µM; in the assay on UO-31 renal, 27.6 µM; in the assay with SK-MEL-2 melanoma, 39.6 µM; with M14 melanoma it was 40 µM; in the assay on SK-OV-3 ovarian, 77.6 µM; with MOLT-4 leukemia, over 100 µM. For the same compound, the TGI stood at 25.7 µM in the assay on DU-145 prostate; 27.4 µM in the assay with SK-MEL-5 melanoma; 36.6 µM in the assay with HOP-62 NSCLC; 47.5 µM in the assay with HL-60(TB) leukemia; 27.8 µM in the assay with PC-3 prostate; 43.9 µM with COLO 205 colon. Also, the TGI in the assay with HCC-2998 colon is 34.3 µM; in the assay on RPMI-8226 leukemia, 89.6 µM; with CAKI-1 renal it was 27.6 µM; in the assay with CCRF-CEM leukemia, over 100 µM; in the assay with OVCAR-8 ovarian, 32.1 µM; in the assay with SN12C renal it was 58.5 µM. Also, the TGI in the assay on SF-268 CNS is over 100 µM; in the assay with A498 renal it was 68.1 µM.

As to `Cc1cc(N)ccc1C=O`, the TGI with OVCAR-3 ovarian, in the assay on UO-31 renal, in the assay with SK-MEL-2 melanoma, in the assay with M14 melanoma, in the assay with SK-OV-3 ovarian and in the assay on MOLT-4 leukemia was over 100 µM each time. Further, the TGI in the assay with DU-145 prostate, in the assay on SK-MEL-5 melanoma, with HOP-62 NSCLC, in the assay with HL-60(TB) leukemia, in the assay on PC-3 prostate and in the assay on COLO 205 colon was over 100 µM throughout. Also, the TGI in the assay with HCC-2998 colon, in the assay with RPMI-8226 leukemia, in the assay with CAKI-1 renal, with CCRF-CEM leukemia, in the assay on OVCAR-8 ovarian and with SN12C renal was over 100 µM in each case. Besides, the TGI in the assay on SF-268 CNS and in the assay with A498 renal was over 100 µM each time.

Take `COc1cccc(C[C@H]2COC(=O)[C@]2(O)Cc2cccc(OC)c2)c1`: the TGI with OVCAR-3 ovarian, with UO-31 renal, in the assay with SK-MEL-2 melanoma, in the assay with M14 melanoma, in the assay on SK-OV-3 ovarian and with MOLT-4 leukemia was over 100 µM throughout. In addition, the TGI in the assay with DU-145 prostate, in the assay on SK-MEL-5 melanoma, in the assay on HOP-62 NSCLC, in the assay with HL-60(TB) leukemia, in the assay with PC-3 prostate and with COLO 205 colon was over 100 µM in each case. In addition, the TGI with HCC-2998 colon, in the assay on RPMI-8226 leukemia, with CAKI-1 renal, in the assay on CCRF-CEM leukemia, in the assay on OVCAR-8 ovarian and in the assay with SN12C renal was over 100 µM each time. In addition, the TGI with SF-268 CNS is 39.4 µM; in the assay on A498 renal it was over 100 µM.

Consider `Cc1ccc(/C(O)=C/c2nc3ccccc3[nH]c2=O)c(C)c1`, for which the TGI in the assay on OVCAR-3 ovarian is over 73.7 µM; in the assay with UO-31 renal, 30.6 µM; with SK-MEL-2 melanoma, over 80.4 µM; in the assay on M14 melanoma, over 96 µM; with SK-OV-3 ovarian, 33.6 µM; in the assay with MOLT-4 leukemia it was over 100 µM. Further, the TGI in the assay with DU-145 prostate was over 70.5 µM; in the assay with SK-MEL-5 melanoma it was over 92.1 µM; in the assay with HOP-62 NSCLC it was 34.3 µM; in the assay on HL-60(TB) leukemia, over 100 µM; in the assay on PC-3 prostate, over 61.5 µM; in the assay on COLO 205 colon, over 100 µM. Further, the TGI is over 100 µM with HCC-2998 colon; over 100 µM in the assay with RPMI-8226 leukemia; 18.3 µM in the assay on CAKI-1 renal; over 100 µM with CCRF-CEM leukemia; 25.4 µM in the assay on OVCAR-8 ovarian; 69.2 µM with SN12C renal. In addition, the values for the TGI with SF-268 CNS and with A498 renal were 25 µM and 9.12 µM, respectively.

Consider `CCOC(=O)C(=CNC(=S)Nc1c(CC)cccc1CC)C(=O)OCC`, for which the TGI in the assay on OVCAR-3 ovarian, in the assay on UO-31 renal, with SK-MEL-2 melanoma, in the assay with M14 melanoma, in the assay on SK-OV-3 ovarian and in the assay on MOLT-4 leukemia was over 100 µM throughout. In addition, the TGI in the assay on DU-145 prostate, in the assay on SK-MEL-5 melanoma, in the assay with HOP-62 NSCLC, in the assay on HL-60(TB) leukemia, in the assay on PC-3 prostate and in the assay with COLO 205 colon was over 100 µM in each case. Moreover, the TGI with HCC-2998 colon, in the assay on RPMI-8226 leukemia, in the assay on CAKI-1 renal, in the assay with CCRF-CEM leukemia, in the assay with OVCAR-8 ovarian and in the assay with SN12C renal was over 100 µM in each case. In addition, the TGI in the assay with SF-268 CNS and in the assay on A498 renal was over 100 µM in each case.

Take `COC(=O)C1(C)CCCC2(C)C3CCC4CC3(C=C4CO)CCC12` (stereo not given): the TGI with OVCAR-3 ovarian is over 100 µM; in the assay with UO-31 renal, over 100 µM; in the assay with SK-MEL-2 melanoma it was over 100 µM; in the assay with M14 melanoma it was over 100 µM; in the assay on SK-OV-3 ovarian it was over 100 µM; in the assay with MOLT-4 leukemia, 76.4 µM. Besides, the TGI is over 100 µM with DU-145 prostate; over 100 µM in the assay with SK-MEL-5 melanoma; over 100 µM in the assay with HOP-62 NSCLC; 43.9 µM with HL-60(TB) leukemia; over 100 µM in the assay with PC-3 prostate; over 100 µM with COLO 205 colon. Also, the TGI is over 100 µM in the assay with HCC-2998 colon; 48.6 µM in the assay with RPMI-8226 leukemia; over 100 µM in the assay with CAKI-1 renal; over 100 µM with CCRF-CEM leukemia; over 100 µM in the assay on OVCAR-8 ovarian; 60.7 µM with SN12C renal. Moreover, the TGI in the assay on SF-268 CNS and in the assay with A498 renal was over 100 µM throughout.

For `O=C(OC(/C=C/c1ccccc1)P1(=O)N(Cc2ccccc2)[C@@H]2CCCC[C@H]2N1Cc1ccccc1)c1ccccc1` (stereo not given in full), the TGI was over 100 µM in the assay on OVCAR-3 ovarian; 68.6 µM in the assay with UO-31 renal; 5.67 µM in the assay on SK-MEL-2 melanoma; over 100 µM with M14 melanoma; over 100 µM in the assay on SK-OV-3 ovarian; 6.47 µM with MOLT-4 leukemia. Moreover, the TGI in the assay with DU-145 prostate is over 100 µM; with SK-MEL-5 melanoma it was 11.4 µM; in the assay with HOP-62 NSCLC, over 100 µM; in the assay with HL-60(TB) leukemia, 7.43 µM; with PC-3 prostate, over 100 µM; in the assay on COLO 205 colon, 4.75 µM. For the same compound, the TGI with HCC-2998 colon is over 100 µM; in the assay on RPMI-8226 leukemia it was 6.53 µM; with CAKI-1 renal it was over 100 µM; in the assay with CCRF-CEM leukemia, 7.88 µM; in the assay with OVCAR-8 ovarian, over 29.8 µM; with SN12C renal, over 100 µM. Besides, the TGI in the assay with SF-268 CNS and with A498 renal was over 100 µM throughout.

Take `O=C1C(=C(C(=O)c2ccccc2)C(=O)c2ccccc2)OC(c2ccccc2)=C1C(=O)c1ccccc1`: the TGI in the assay with OVCAR-3 ovarian worked out at 23 µM; with UO-31 renal, 26.7 µM; with SK-MEL-2 melanoma it was 28.3 µM; in the assay with M14 melanoma, 31 µM; with SK-OV-3 ovarian, 34.6 µM; in the assay with MOLT-4 leukemia it was 9.86 µM. Moreover, the TGI is 48.8 µM in the assay on DU-145 prostate; 25 µM in the assay with SK-MEL-5 melanoma; 15.6 µM in the assay with HOP-62 NSCLC; 30.8 µM in the assay with HL-60(TB) leukemia; over 100 µM in the assay with PC-3 prostate; 25.7 µM in the assay with COLO 205 colon. Moreover, the TGI worked out at 27.6 µM in the assay on HCC-2998 colon; 24.9 µM with RPMI-8226 leukemia; 11.2 µM in the assay with CAKI-1 renal; 10.9 µM in the assay with CCRF-CEM leukemia; 15.7 µM in the assay with OVCAR-8 ovarian; 19.2 µM in the assay on SN12C renal. The TGI turned out to be 34.8 µM in the assay on SF-268 CNS and 44.2 µM with A498 renal.

The values are drawn from PubChem BioAssay (NCI).
